In patent publication US20130131075A1, “NEW COMPOUNDS” (Boehringer Ingelheim International GmbH, priority 2009, published 2013):

These compounds were tested against T1, cynomolgus BK1-receptor (Macaca fascicularis, UniProt Q3BCU0) (assay: cynoBK1-receptor binding assay). Details: CHO cells expressing cynomolgus BK1-receptor, radioligand kallidine (DesArg10,Leu9).
T1 construct: expressed in transfected cells; host or cells: CHO cells (homogenate)
T1 sequence (Q3BCU0 1-352): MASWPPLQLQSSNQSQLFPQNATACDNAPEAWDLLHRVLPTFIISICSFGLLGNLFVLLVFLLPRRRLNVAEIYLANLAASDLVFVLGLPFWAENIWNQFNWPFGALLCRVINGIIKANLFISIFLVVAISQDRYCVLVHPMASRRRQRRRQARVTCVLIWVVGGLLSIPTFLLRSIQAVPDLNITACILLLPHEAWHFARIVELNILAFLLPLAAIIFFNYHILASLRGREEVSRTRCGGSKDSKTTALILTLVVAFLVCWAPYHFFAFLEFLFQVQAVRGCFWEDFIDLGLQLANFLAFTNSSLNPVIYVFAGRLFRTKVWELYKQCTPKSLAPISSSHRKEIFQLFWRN
Method in brief: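 Ki derived by non-linear fitting of concentration-binding curves. Test compound competed against 0.5 to 5.0 nM tritiated kallidine (DesArg10,Leu9) on cynomolgus BK1-CHO cell homogenate (50 to 250 μg protein/assay) for 60-180 minutes at ambient temperature, then filtered. 1.0 μM kallidine (DesArg10) set non-specific binding.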

Structure (SMILES) | Ki [nM]
O=C(N[C@@]1(C(=O)NCc2ccc(Nc3ccc(Cl)cc3C(F)(F)F)cn2)CCOC1)c1cncnc1 [(228)] | 78
Cc1ncc(C(=O)N[C@@]2(C(=O)NCc3ccc(Nc4ccc(F)cc4C(F)(F)F)cc3F)CCOC2)cn1 [(274)] | 4
Cc1ncc(C(=O)NC2(C(=O)NCc3ncc(Nc4ccccc4C(F)(F)F)cc3C)CC2)cn1 [(374)] | 5.5
CNc1cncc(C(=O)N[C@@]2(C(=O)NCc3ccc(Nc4ccc(F)cc4C(F)(F)F)cn3)CCOC2)c1 [(311)] | 349
CNc1cncc(C(=O)N[C@@]2(C(=O)NCc3ccc(Nc4ccc(F)cc4C(F)(F)F)cc3)CCOC2)c1 [(305)] | 76
CCOc1ncc(C(=O)NC2(C(=O)NCc3ccc(Nc4ccc(Cl)cc4C(F)(F)F)cn3)CC2)cn1 [(390)] | 7.3
Nc1ncc(C(=O)NC2(C(=O)NCc3ccc(Nc4ccc(F)cc4C(F)(F)F)cn3)CC2)o1 [(169)] | 292
Nc1cncc(C(=O)N[C@@]2(C(=O)NCc3ncc(Nc4ccc(Cl)cc4C(F)(F)F)cc3Cl)CCOC2)c1 [(285)] | 27
N#Cc1ccccc1Nc1ccc(CNC(=O)C2(NC(=O)c3cncnc3)CC2)cc1 [(35)] | 70
O=C(N[C@@]1(C(=O)NCc2ccc(Nc3ccc(Br)cc3C(F)(F)F)cn2)CCOC1)c1cncnc1 [(223)] | 75
CN(C)c1ncc(C(=O)NC2(C(=O)NCc3ccc(Nc4ccc(Br)cc4C(F)(F)F)cn3)CC2)cn1 [(175)] | 63
CC(NC(=O)C1(NC(=O)c2cncnc2)CC1)c1ccc(Nc2ccc(Br)cc2C(F)(F)F)cn1 (stereo not drawn) [(180)] | 1.6
O=C(N[C@@]1(C(=O)NCc2ccc(Nc3ccccc3C(F)(F)F)cc2)CCOC1)c1cnc(O)nc1 [(90)] | 135
CC(C)c1ccc(Nc2ccc(CNC(=O)C3(NC(=O)c4cncnc4)CC3)nc2)c(C(F)(F)F)c1 [(204)] | 402
CC(NC(=O)[C@]1(NC(=O)c2cncnc2)CCOC1)c1ccc(Nc2ccc(Br)cc2C(F)(F)F)cn1 (stereo partly drawn) [(188)] | 43
Nc1cncc(C(=O)N[C@@]2(C(=O)NCc3ncc(Nc4ccc(F)cc4C(F)(F)F)cc3Cl)CCOC2)c1 [(219)] | 8.9
CC(NC(=O)[C@]1(NC(=O)c2cncnc2)CCOC1)c1ccc(Nc2ccc(F)cc2C(F)(F)F)cn1 (stereo partly drawn) [(47)] | 39
Nc1nc2cc(C(=O)NC3(C(=O)NCc4ccc(Nc5ccc(Cl)cc5C(F)(F)F)cn4)CC3)ccc2[nH]1 [(265)] | 75
Nc1ccc(C(=O)N[C@@]2(C(=O)NCc3ncc(Nc4ccc(Cl)cc4C(F)(F)F)cc3F)CCOC2)cn1 [(293)] | 65
Cc1cc(Nc2ccc(F)cc2C(F)(F)F)cnc1CNC(=O)[C@]1(NC(=O)c2cncc(N)c2)CCOC1 [(342)] | 50
CC(C#N)C(=O)NC1(C(=O)NCc2ccc(Nc3ccc(Cl)cc3C(F)(F)F)cn2)CC1 (stereo not drawn) [(368)] | 42
COc1ncc(C(=O)N[C@@]2(C(=O)NCc3ncc(Nc4ccc(F)cc4C(F)(F)F)cc3F)CCOC2)cn1 [(238)] | 6.6
Cn1cnc2cc(C(=O)NC3(C(=O)NCc4ccc(Nc5ccc(Cl)cc5C(F)(F)F)cn4)CC3)ccc21 [(264)] | 60
N#Cc1ncc(C(=O)NC2(C(=O)NCc3ccc(Nc4ccc(Cl)cc4C(F)(F)F)cn3)CC2)cn1 [(385)] | 9.4

Structure (SMILES) | Ki [nM]
CC(=O)Nc1cncc(C(=O)NC2(C(=O)NCc3ccc(Nc4ccc(F)cc4C(F)(F)F)cn3)CC2)c1 [(249)] | 518
Cc1cc(Nc2ccc(F)cc2C(F)(F)F)cnc1CNC(=O)[C@]1(NC(=O)c2cncnc2)CCOC1 [(324)] | 22
CNc1cncc(C(=O)N[C@@]2(C(=O)NCc3ncc(Nc4ccc(F)cc4C(F)(F)F)cc3F)CCOC2)c1 [(260)] | 43
Nc1cncc(C(=O)NC2(C(=O)NCc3ccc(Nc4ccccc4C(F)(F)F)cc3)COC2)c1 [(273)] | 141
CN(C)c1ncc(C(=O)NC2(C(=O)NCc3ccc(Nc4ccc(Cl)cc4C(F)(F)F)cn3)CC2)cn1 [(210)] | 187
Cc1ncc(C(=O)N[C@@]2(C(=O)NCc3ccc(Nc4c(F)cccc4C(F)(F)F)cc3F)CCOC2)cn1 [(291)] | 40
O=C(N[C@@]1(C(=O)NCc2ncc(Nc3c(F)cccc3C(F)(F)F)cc2F)CCOC1)c1cncnc1 [(158)] | 115
Cc1cccc(C(F)(F)F)c1Nc1ccc(CNC(=O)C2(NC(=O)c3cncnc3)CC2)nc1 [(49)] | 365
COc1ncc(C(=O)N[C@@]2(C(=O)NCc3ccc(Nc4ccc(F)cc4C(F)(F)F)cn3)CCOC2)cn1 [(327)] | 89
Cc1ncc(C(=O)N[C@@]2(C(=O)NCc3ncc(Nc4ccc(Cl)cc4C(F)(F)F)cc3Cl)CCOC2)cn1 [(282)] | 7.9
O=C(NC1(C(=O)NCc2ccc(Nc3ccc(Cl)cc3C(F)(F)F)cn2)CC1)c1cncc(Cl)c1 [(352)] | 59
O=C(NC1(C(=O)NCc2ncc(Nc3ccc(F)cc3C(F)(F)F)cc2F)CC1)c1cncnc1 [(151)] | 1.8
O=C(NC1(C(=O)NCc2ccc(Nc3ccc(F)cc3)cc2)CC1)c1cncnc1 [(37)] | > 500
Cc1ncc(C(=O)N[C@@]2(C(=O)NCc3ccc(Nc4ccccc4C(F)(F)F)cc3)CCOC2)cn1 [(83)] | 9
CC(=O)Nc1cncc(C(=O)NC2(C(=O)NCc3ccc(Nc4ccc(Cl)cc4C(F)(F)F)cn3)CC2)c1 [(275)] | 405
Nc1cncc(C(=O)N[C@@]2(C(=O)NCc3ccc(Nc4ccc(F)cc4C(F)(F)F)cn3)CCOC2)c1 [(157)] | 56
O=C(NC1(C(=O)NCc2ccc(Nc3ccc(Br)cc3C(F)(F)F)cn2)CC1)c1cccc(O)n1 [(140)] | 14
CNc1ncc(C(=O)N[C@@]2(C(=O)NCc3ncc(Nc4c(F)cccc4C(F)(F)F)cc3Cl)CCOC2)cn1 [(241)] | 68
N#Cc1cc(F)ccc1Nc1cnc(CNC(=O)C2(NC(=O)c3cncnc3)CC2)c(F)c1 [(160)] | 17
Cn1ccc(C(=O)NC2(C(=O)NCc3ncc(Nc4c(F)cccc4C(F)(F)F)cc3F)CC2)cc1=O [(132)] | 180
CNc1ncc(C(=O)NC2(C(=O)NCc3ccc(Nc4ccc(Cl)cc4C(F)(F)F)cn3)CC2)cn1 [(145)] | 2.8
O=C(CC(F)(F)F)NC1(C(=O)NCc2ccc(Nc3ccc(Cl)cc3C(F)(F)F)cn2)CC1 [(363)] | 45
Nc1cncc(C(=O)N[C@@]2(C(=O)NCc3ccc(Nc4c(F)cccc4C(F)(F)F)cc3F)CCOC2)c1 [(290)] | 46
Cc1ccc(C(=O)NC2(C(=O)NCc3ccc(Nc4ccc(F)cc4C(F)(F)F)cn3)CC2)cn1 [(341)] | 69

Same assay, conditions: at 10 μgmol/L; CHO cells expressing cynomolgus BK1-receptor, radioligand kallidine (DesArg10,Leu9)

Structure (SMILES) | inhibition at 10 µM [%]
O=C(NC1(C(=O)NCc2ccc(Nc3ccc(Br)cc3C(F)(F)F)cn2)CC1)c1ccnnc1 [(174)] | 99
Nc1ncc(C(=O)NC2(C(=O)NCc3ccc(Nc4ccc(F)cc4C(F)(F)F)cn3)CC2)o1 [(169)] | 90
N#Cc1ccccc1Nc1ccc(CNC(=O)C2(NC(=O)c3cncnc3)CC2)cc1 [(35)] | 111
O=C(NC1(C(=O)NCc2ccc(Nc3ccc(Cl)cc3C(F)(F)F)cn2)CC1)c1cncs1 [(149)] | 100
CN(C)c1ncc(C(=O)NC2(C(=O)NCc3ccc(Nc4ccc(Br)cc4C(F)(F)F)cn3)CC2)cn1 [(175)] | 96
O=C(NC1(C(=O)NCc2ncc(Nc3ccc(Cl)cc3C(F)(F)F)cc2F)CC1)c1cncnc1 [(165)] | 101
CC(NC(=O)C1(NC(=O)c2cncnc2)CC1)c1ccc(Nc2ccc(Br)cc2C(F)(F)F)cn1 (stereo not drawn) [(180)] | 106
O=C(N[C@@]1(C(=O)NCc2ccc(Nc3cc(F)ccc3C(F)(F)F)cn2)CCOC1)c1cncnc1 [(48)] | 71
O=C(N[C@@]1(C(=O)NCc2ccc(Nc3ccccc3C(F)(F)F)cc2)CCOC1)c1cnc(O)nc1 [(90)] | 109
O=C(NC1(C(=O)NCc2ccc(Nc3ccccc3C(F)(F)F)cc2)CC1)c1cccnc1 [(11)] | 99
CC(NC(=O)[C@]1(NC(=O)c2cncnc2)CCOC1)c1ccc(Nc2ccc(Br)cc2C(F)(F)F)cn1 (stereo partly drawn) [(188)] | 92
CC(NC(=O)[C@]1(NC(=O)c2cncnc2)CCOC1)c1ccc(Nc2ccc(F)cc2C(F)(F)F)cn1 (stereo partly drawn) [(47)] | 94
CN(C)CCCCC(=O)NC1(C(=O)NCc2ccc(Nc3ccccc3C(F)(F)F)cc2)CC1 [(10)] | 58
O=C(NC1(C(=O)NCc2ccc(Nc3ccccc3C(F)(F)F)cn2)CCC(O)C1)c1cncnc1 (stereo not drawn) [(192)] | 95
CN(C)CCC(=O)NC1(C(=O)NCc2ccc(Nc3ccccc3C(F)(F)F)cc2)CC1 [(8)] | 75
O=C(NC1(C(=O)NCc2ccc(Nc3cccc(Cl)c3Cl)cc2)CC1)c1cncnc1 [(1)] | 54
Cn1ccc(C(=O)NC2(C(=O)NCc3ccc(Nc4ccc(Cl)cc4C(F)(F)F)cn3)CC2)cc1=O [(148)] | 96
O=C(N[C@@]1(C(=O)NCc2ccc(Nc3ccccc3C(F)(F)F)cc2)CCOC1)C1CCOCC1 [(65)] | 76

Structure (SMILES) | inhibition at 10 µM [%]
O=C(N[C@@]1(C(=O)NCc2ncc(Nc3c(F)cccc3C(F)(F)F)cc2F)CCOC1)c1cncnc1 [(158)] | 101
Cc1cccc(C(F)(F)F)c1Nc1ccc(CNC(=O)C2(NC(=O)c3cncnc3)CC2)nc1 [(49)] | 103
O=C(NC1(C(=O)NCc2ccc(Nc3ccc(Br)cc3C(F)(F)F)cn2)CC1)c1cc(O)nc(O)n1 [(176)] | 100
O=C(NC1(C(=O)NCc2ncc(Nc3ccc(F)cc3C(F)(F)F)cc2F)CC1)c1cncnc1 [(151)] | 107
O=C(NC1(C(=O)NCc2ccc(Nc3ccc(F)cc3)cc2)CC1)c1cncnc1 [(37)] | 77
Cc1ncc(C(=O)N[C@@]2(C(=O)NCc3ccc(Nc4ccccc4C(F)(F)F)cc3)CCOC2)cn1 [(83)] | 113
O=C(NC1(C(=O)NCc2ccc(Nc3ccc(Br)cc3C(F)(F)F)cn2)CC1)c1ccnc(O)c1 [(171)] | 97
O=C1CCC(C(=O)N[C@@]2(C(=O)NCc3ccc(Nc4ccccc4C(F)(F)F)cc3)CCOC2)N1 (stereo partly drawn) [(56)] | 99
Nc1cncc(C(=O)N[C@@]2(C(=O)NCc3ccc(Nc4ccc(F)cc4C(F)(F)F)cn3)CCOC2)c1 [(157)] | 96
O=C(NC1(C(=O)NCc2ccc(Nc3ccc(Br)cc3C(F)(F)F)cn2)CC1)c1cccc(O)n1 [(140)] | 106
N#Cc1cc(F)ccc1Nc1cnc(CNC(=O)C2(NC(=O)c3cncnc3)CC2)c(F)c1 [(160)] | 106
Cn1ccc(C(=O)NC2(C(=O)NCc3ncc(Nc4c(F)cccc4C(F)(F)F)cc3F)CC2)cc1=O [(132)] | 98
CNc1ncc(C(=O)NC2(C(=O)NCc3ccc(Nc4ccc(Cl)cc4C(F)(F)F)cn3)CC2)cn1 [(145)] | 99
O=C(N[C@@]1(C(=O)NCc2ccc(Nc3ccccc3C(F)(F)F)cc2)CCOC1)c1ccoc1 [(93)] | 84
CN1CCC(C(=O)NC2(C(=O)NCc3ccc(Nc4ccccc4C(F)(F)F)cc3)CC2)CC1 [(22)] | 60
O=C(CC(F)(F)F)NC1(C(=O)NCc2ccc(Nc3ccccc3C(F)(F)F)cc2)CC1 [(7)] | 100
O=C(NC1(C(=O)NCc2ccc(Nc3ccccc3C(F)(F)F)cc2)CC1)c1ccccc1 [(20)] | 81
CCCCC(=O)NC1(C(=O)NCc2ccc(Nc3ccccc3C(F)(F)F)cc2)CC1 [(16)] | 91
